US8703796B2, “3H-imidazo [4, 5-B] pyridine-6-carboxamides as anti-inflammatory agents” (Boehringer Ingelheim International GmbH, priority 2008, dated 2014)

Biological target: T1, recombinant human mPGES-1 (Homo sapiens, UniProt O14684)
T1 construct: made in house; host or cells: Rosetta E. coli (microsomal/membrane fraction)
T1 sequence (O14684 1-152): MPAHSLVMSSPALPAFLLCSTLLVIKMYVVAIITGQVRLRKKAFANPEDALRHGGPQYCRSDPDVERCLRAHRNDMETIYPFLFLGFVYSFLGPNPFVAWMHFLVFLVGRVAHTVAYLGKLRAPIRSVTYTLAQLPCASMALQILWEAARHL
Test: mPGES-1 inhibition, HTRF detection of PGE2
Type: biochemical
Experimental: Microsomes from Rosetta E. coli bacteria expressing recombinant human mPGES-1 is dissolved in 0.1 M KPi pH 7.4 buffer containing 2.5 mM GSH. 50 μl of the enzyme is subsequently dispensed in a 384-well plate. 0.5 μl of the inhibitor dissolved in DMSO at is thereafter added to each well and incubated for 25 minutes at room temperature. Subsequently, 2 μl of PGH2 dissolved in an appropriate solvent is added to each well and after one minute the acidified stop solution containing FeCl2 is added. 4 μl of the total volume is transferred to a separate plate and diluted 750-fold in two separate steps before HTRF detection of PGE2.
The HTRf detection is performed by the use of a commercially available kit from CisBio essentially according to the manufacturer's protocol. Briefly, 10 μl of the diluted sample is transferred to a white 384-well plate. 5 μl of d2 and 5 μl Eu3+-Cryptate labeled anti-PGE2 is added to each well containing samples by the use of a Multidrop. The plate is covered with a plastic self-adhesive film, centrifuged at 1200 rpm for 1 minute and subsequently stored at +4° C. over night.
After over night incubation the fluorescence is measured by the use of an appropriate microplate reader. The fluorescence of europium cryptate, and d2 are measured using the following excitation and emission wavelength, europium cryptate: λmax^ex=307 nm, λmax^em=620 nm and d2: λmax^ex=620 nm, λmax^em=665 nm), respectively. The extent of the specific FRET is measured as a ratio of the emission intensity at 665 nm vs. that at 620 nm. A standard curve using synthetic PGE2 is used to quantify the amount of PGE2 in unknown samples.

inhibition at 10 µM [%]	SMILES
100	O=C(Nc1ccc(Br)cc1)c1cnc2[nH]c(Nc3c(Cl)cccc3Cl)nc2c1 [Example 401, N-(4-Bromophenyl)-2-(2,6-dichlorophenylamino)-3H-imidazo[4,5-b]pyridine-6-carboxamide]
94	Cc1cc(C)c(Nc2nc3cc(C(=O)N[C@H]4CC[C@H](C(F)(F)F)CC4)c(OCC(F)F)nc3[nH]2)c(Cl)n1 [Example 793, 2-(2-Chloro-4,6-dimethyl-pyridin-3-ylamino)-5-(2,2-difluoro-ethoxy)-N-(trans-4-trifluoromethyl-cyclohexyl)-3H-imidazo[4,5-b]pyridine-6-carboxamide]
96	O=C(Nc1cc(C(F)(F)F)ccn1)c1cc2nc(Nc3c(Cl)cc(F)cc3Cl)[nH]c2nc1OCC(F)(F)F [Example 819, 2-(2,6-Dichloro-4-fluoro-phenylamino)-5-(2,2,2-trifluoro-ethoxy)-N-(4-trifluoromethyl-pyridin-2-yl)-3H-imidazo[4,5-b]pyridine-6-carboxamide]
100	COCCOc1nc2c(cc1C(=O)N[C@H]1CC[C@H](C(F)(F)F)CC1)nc(Nc1c(Cl)cncc1Cl)n2C [Example 868, 2-(3,5-Dichloro-pyridin-4-ylamino)-5-(2-methoxy-ethoxy)-N-(trans-4-trifluoromethyl-cyclohexyl)-3-methyl-3H-imidazo[4,5-b]pyridine-6-carboxamide]
100	COCCOc1nc2[nH]c(Nc3c(Cl)cc(F)cc3Cl)nc2cc1C(=O)N[C@H]1CC[C@H](C(F)(F)F)CC1 [Example 867, 2-(2,6-Dichloro-4-fluoro-phenylamino)-5-(2-methoxy-ethoxy)-N-(trans-4-trifluoromethyl-cyclohexyl)-3H-imidazo[4,5-b]pyridine-6-carboxamide]
100	O=C(Nc1ccc(Br)cc1)c1cc2nc(Nc3c(Cl)cc(F)cc3Cl)[nH]c2nc1OCC(F)F [Example 822, 2-(2,6-Dichloro-4-fluoro-phenylamino)-5-(2,2-difluoro-ethoxy)-N-(4-bromo-phenyl)-3H-imidazo[4,5-b]pyridine-6-carboxamide]
99	Cn1c(Nc2c(Cl)cc(F)cc2Cl)nc2cc(C(=O)Nc3ccc(Br)cc3)c(OCC(F)F)nc21 [Example 818, 2-(2,6-Dichloro-4-fluoro-phenylamino)-5-(2,2-difluoro-ethoxy)-N-(4-bromo-phenyl)-3-methyl-3H-imidazo[4,5-b]pyridine-6-carboxamide]
100	Cn1c(Nc2c(Cl)cncc2Cl)nc2cc(C(=O)Nc3ccc(Br)cc3)c(OCCF)nc21 [Example 832, 2-(3,5-Dichloro-pyridin-4-ylamino)-5-(2-fluoro-ethoxy)-N-(4-bromo-phenyl)-3-methyl-3H-imidazo[4,5-b]pyridine-6-carboxamide]
97	Cn1c(Nc2c(Cl)cc(F)cc2Cl)nc2cc(C(=O)N[C@H]3CC[C@H](C(F)(F)F)CC3)c(OCC(F)(F)F)nc21 [Example 814, 2-(2,6-Dichloro-4-fluoro-phenylamino)-5-(2,2,2-trifluoro-ethoxy)-N-(trans-4-trifluoromethyl-cyclohexyl)-3-methyl-3H-imidazo[4,5-b]pyridine-6-carboxamide]
100	O=C(NCc1ccccc1C(F)(F)F)c1cc2nc(Nc3c(Cl)cc(F)cc3Cl)[nH]c2nc1OCC(F)F [Example 824, 2-(2,6-Dichloro-4-fluoro-phenylamino)-5-(2,2-difluoro-ethoxy)-N-(2-trifluoromethyl-benzyl)-3H-imidazo[4,5-b]pyridine-6-carboxamide]
100	Cn1c(Nc2c(Cl)cncc2Cl)nc2cc(C(=O)Nc3cc(C(F)(F)F)ccn3)c(OCC(F)F)nc21 [Example 836, 2-(3,5-Dichloro-pyridin-4-ylamino)-5-(2,2-difluoro-ethoxy)-N-(4-trifluoromethyl-pyridin-2-yl)-3-methyl-3H-imidazo[4,5-b]pyridine-6-carboxamide]
100	O=C(N[C@H]1CC[C@H](C(F)(F)F)CC1)c1cc2nc(Nc3c(Cl)cc(F)cc3Cl)[nH]c2nc1OCC(F)(F)F [Example 827, 2-(2,6-Dichloro-4-fluoro-phenylamino)-5-(2,2,2-trifluoro-ethoxy)-N-(trans-4-trifluoromethyl-cyclohexyl)-3H-imidazo[4,5-b]pyridine-6-carboxamide]
94	CCCC[C@@H](C)NC(=O)c1cnc2c(c1)nc(Nc1c(Cl)cccc1Cl)n2C [Example 508, (R)-2-(2,6-Dichlorophenylamino)-N-(hexan-2-yl)-3-methyl-3H-imidazo[4,5-b]pyridine-6-carboxamide]
82	Cn1c(Nc2c(Cl)cc(F)cc2Cl)nc2cc(C(=O)N[C@H]3CC[C@H](C(F)(F)F)CC3)c(OCC(F)F)nc21 [Example 863, 2-(2,6-Dichloro-4-fluoro-phenylamino)-5-(2,2-difluoro-ethoxy)-N-(trans-4-trifluoromethyl-cyclohexyl)-3-methyl-3H-imidazo[4,5-b]pyridine-6-carboxamide]
98	CCCCC[C@H](C)NC(=O)c1cnc2c(c1)nc(Nc1c(Cl)cccc1Cl)n2C [Example 497, (S)-2-(2,6-Dichlorophenylamino)-N-(hept-2-yl)-3-methyl-3H-imidazo[4,5-b]pyridine-6-carboxamide]
92	CN(C)CCOc1nc2c(cc1C(=O)N[C@H]1CC[C@H](C(F)(F)F)CC1)nc(Nc1c(Cl)cc(F)cc1Cl)n2C [Example 865, 2-(2,6-Dichloro-4-fluoro-phenylamino)-5-(2-dimethylamino-ethoxy)-N-(trans-4-trifluoromethyl-cyclohexyl)-3-methyl-3H-imidazo[4,5-b]pyridine-6-carboxamide]
100	COCCOc1nc2[nH]c(Nc3c(Cl)cncc3Cl)nc2cc1C(=O)Nc1cc(C(F)(F)F)ccn1 [Example 808, 2-(3,5-Dichloro-pyridin-4-ylamino)-5-(2-methoxy-ethoxy)-N-(4-trifluoromethyl-pyridin-2-yl)-3H-imidazo[4,5-b]pyridine-6-carboxamide]
100	COCCOc1nc2c(cc1C(=O)N[C@H]1CC[C@H](C(F)(F)F)CC1)nc(Nc1c(Cl)cc(F)cc1Cl)n2C [Example 869, 2-(2,6-Dichloro-4-fluoro-phenylamino)-5-(2-methoxy-ethoxy)-N-(trans-4-trifluoromethyl-cyclohexyl)-3-methyl-3H-imidazo[4,5-b]pyridine-6-carboxamide]
99	Cn1c(Nc2c(Cl)cc(F)cc2Cl)nc2cc(C(=O)NCc3ncccc3C(F)(F)F)c(OCC(F)(F)F)nc21 [Example 813, 2-(2,6-Dichloro-4-fluoro-phenylamino)-5-(2,2,2-trifluoro-ethoxy)-N-((3-trifluoromethyl-pyridin-2-yl)-methyl)-3-methyl-3H-imidazo[4,5-b]pyridine-6-carboxamide]

SMILES	inhibition at 10 µM [%]
COCCOc1nc2[nH]c(Nc3c(Cl)cncc3Cl)nc2cc1C(=O)NCC(F)(F)C(F)(F)C(F)(F)C(F)(F)F [Example 802, 2-(3,5-Dichloro-pyridin-4-ylamino)-5-(2-methoxy-ethoxy)-N-(2,2,3,3,4,4,5,5,5-nonafluoro-pentyl)-3H-imidazo[4,5-b]pyridine-6-carboxamide]	96
CCOc1nc2[nH]c(Nc3c(Cl)cncc3Cl)nc2cc1C(=O)NCC(F)(F)C(F)(F)C(F)(F)C(F)(F)F [Example 844, 2-(3,5-Dichloro-pyridin-4-ylamino)-5-ethoxy-N-(2,2,3,3,4,4,5,5,5-nonafluoro-pentyl)-3H-imidazo[4,5-b]pyridine-6-carboxamide]	100
O=C(NCC(F)(F)C(F)(F)C(F)(F)C(F)(F)F)c1cc2nc(Nc3c(Cl)cc(F)cc3Cl)[nH]c2nc1OCC(F)F [Example 825, 2-(2,6-Dichloro-4-fluoro-phenylamino)-5-(2,2-difluoro-ethoxy)-N-(2,2,3,3,4,4,5,5,5-nonafluoropentyl)-3H-imidazo[4,5-b]pyridine-6-carboxamide]	98
Cn1c(Nc2c(Cl)cncc2Cl)nc2cc(C(=O)NCC(F)(F)C(F)(F)C(F)(F)C(F)(F)F)c(OC3CCOC3)nc21 (stereo not drawn) [Example 849, 2-(3,5-Dichloro-pyridin-4-ylamino)-5-(tetrahydrofuran-3-yl-oxy)-N-(2,2,3,3,4,4,5,5,5-nonafluoro-pentyl)-3-methyl-3H-imidazo[4,5-b]pyridine-6-carboxamide]	98
Cn1c(Nc2c(Cl)cncc2Cl)nc2cc(C(=O)NCC(F)(F)C(F)(F)C(F)(F)C(F)(F)F)c(OCCF)nc21 [Example 834, 2-(3,5-Dichloro-pyridin-4-ylamino)-5-(2-fluoro-ethoxy)-N-(2,2,3,3,4,4,5,5,5-nonafluoropentyl)-3-methyl-3H-imidazo[4,5-b]pyridine-6-carboxamide]	99
